According to ChEMBL document CHEMBL1201862, “PubChem BioAssay data set” (2004):
Activity calls are given as the source filed them.

Columns and labels:
Caspase-3 = target: T1, Caspase-3 (Homo sapiens, UniProt P42574); format: functional;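 further: Dose-response selectivity test against caspase-3 for candidate inhibitors of sentrin-specific proteases (SENPs)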
T1 sequence (P42574 whole entry): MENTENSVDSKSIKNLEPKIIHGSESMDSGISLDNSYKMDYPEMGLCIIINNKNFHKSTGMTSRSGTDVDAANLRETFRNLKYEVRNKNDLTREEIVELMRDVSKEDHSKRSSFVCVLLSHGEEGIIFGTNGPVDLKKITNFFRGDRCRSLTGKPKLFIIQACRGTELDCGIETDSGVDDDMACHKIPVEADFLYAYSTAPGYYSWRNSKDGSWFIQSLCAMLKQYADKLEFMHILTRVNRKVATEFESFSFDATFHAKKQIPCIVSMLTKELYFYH

[1] = target: T2, Sentrin-specific protease 7 (Homo sapiens, UniProt Q9BQF6); format: functional;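 further: Luminescence-based dose-response confirmation of ultra-high-throughput screening hits, measuring inhibition of SENP7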
T2 sequence (Q9BQF6 whole entry): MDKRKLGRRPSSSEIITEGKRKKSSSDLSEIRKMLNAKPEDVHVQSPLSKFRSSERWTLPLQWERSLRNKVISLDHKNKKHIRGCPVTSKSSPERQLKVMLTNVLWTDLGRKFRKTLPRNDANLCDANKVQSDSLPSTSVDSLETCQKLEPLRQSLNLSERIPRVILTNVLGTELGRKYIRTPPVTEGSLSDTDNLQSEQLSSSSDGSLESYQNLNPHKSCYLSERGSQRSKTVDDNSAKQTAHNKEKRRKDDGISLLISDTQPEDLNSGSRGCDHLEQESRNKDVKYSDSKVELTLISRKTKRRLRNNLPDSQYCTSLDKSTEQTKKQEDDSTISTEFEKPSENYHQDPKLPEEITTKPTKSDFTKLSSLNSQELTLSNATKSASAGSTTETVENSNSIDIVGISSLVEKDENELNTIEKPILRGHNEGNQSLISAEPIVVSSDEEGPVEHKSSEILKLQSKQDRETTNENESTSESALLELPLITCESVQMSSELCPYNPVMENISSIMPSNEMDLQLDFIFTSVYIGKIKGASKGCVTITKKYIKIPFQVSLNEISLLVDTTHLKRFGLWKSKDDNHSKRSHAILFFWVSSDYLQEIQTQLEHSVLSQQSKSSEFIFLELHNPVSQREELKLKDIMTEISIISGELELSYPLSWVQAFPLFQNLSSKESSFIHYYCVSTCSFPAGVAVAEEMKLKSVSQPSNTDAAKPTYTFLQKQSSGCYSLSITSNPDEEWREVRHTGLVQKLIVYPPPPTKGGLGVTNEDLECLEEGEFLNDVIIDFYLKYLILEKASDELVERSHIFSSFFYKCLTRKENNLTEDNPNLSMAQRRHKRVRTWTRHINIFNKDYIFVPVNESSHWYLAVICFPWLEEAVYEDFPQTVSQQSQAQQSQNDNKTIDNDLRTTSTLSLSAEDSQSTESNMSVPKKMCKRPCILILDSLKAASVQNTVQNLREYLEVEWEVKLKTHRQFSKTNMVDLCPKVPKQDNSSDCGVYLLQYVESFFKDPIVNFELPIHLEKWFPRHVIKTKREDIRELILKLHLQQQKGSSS

[2] = target: T3, Sentrin-specific protease 6 (Homo sapiens, UniProt Q9GZR1); format: functional;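 further: Luminescence-based dose-response confirmatory assay of SENP6 inhibition, following up an ultra-high-throughput screen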
T3 sequence (Q9GZR1 whole entry): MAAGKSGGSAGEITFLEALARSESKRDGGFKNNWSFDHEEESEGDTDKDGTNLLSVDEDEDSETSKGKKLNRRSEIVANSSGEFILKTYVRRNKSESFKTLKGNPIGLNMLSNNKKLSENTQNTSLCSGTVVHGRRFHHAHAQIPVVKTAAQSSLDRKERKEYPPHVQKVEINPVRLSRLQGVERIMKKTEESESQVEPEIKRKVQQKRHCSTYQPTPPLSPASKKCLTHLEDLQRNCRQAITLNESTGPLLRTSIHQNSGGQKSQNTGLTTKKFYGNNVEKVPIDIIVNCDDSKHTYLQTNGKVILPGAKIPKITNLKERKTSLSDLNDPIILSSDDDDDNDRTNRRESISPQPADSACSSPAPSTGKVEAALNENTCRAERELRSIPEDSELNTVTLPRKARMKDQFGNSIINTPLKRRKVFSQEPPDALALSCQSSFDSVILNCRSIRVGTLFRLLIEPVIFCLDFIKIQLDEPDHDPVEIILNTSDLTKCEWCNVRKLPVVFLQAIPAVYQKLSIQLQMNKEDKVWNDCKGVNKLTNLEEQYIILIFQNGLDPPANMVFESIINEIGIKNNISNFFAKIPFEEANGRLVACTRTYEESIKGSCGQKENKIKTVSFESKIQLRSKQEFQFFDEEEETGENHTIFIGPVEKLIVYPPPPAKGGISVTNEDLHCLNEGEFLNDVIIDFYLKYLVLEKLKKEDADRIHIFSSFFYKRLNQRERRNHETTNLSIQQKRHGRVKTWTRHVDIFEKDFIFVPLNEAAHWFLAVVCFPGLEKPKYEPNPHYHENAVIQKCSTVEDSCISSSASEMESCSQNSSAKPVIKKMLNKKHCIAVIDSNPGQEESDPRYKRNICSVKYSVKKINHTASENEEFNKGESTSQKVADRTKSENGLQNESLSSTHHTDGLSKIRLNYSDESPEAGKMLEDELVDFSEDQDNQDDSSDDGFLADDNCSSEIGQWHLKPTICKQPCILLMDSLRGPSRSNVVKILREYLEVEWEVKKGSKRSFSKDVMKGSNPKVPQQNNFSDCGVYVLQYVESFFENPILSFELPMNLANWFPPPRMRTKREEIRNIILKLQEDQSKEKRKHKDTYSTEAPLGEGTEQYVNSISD

[3] = target: T4, Sentrin-specific protease 8 (Homo sapiens, UniProt Q96LD8); format: functional;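 further: luminescence read-out of SENP8 inhibition, dose-response confirmation following an ultra-high-throughput screen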
T4 sequence (Q96LD8 whole entry): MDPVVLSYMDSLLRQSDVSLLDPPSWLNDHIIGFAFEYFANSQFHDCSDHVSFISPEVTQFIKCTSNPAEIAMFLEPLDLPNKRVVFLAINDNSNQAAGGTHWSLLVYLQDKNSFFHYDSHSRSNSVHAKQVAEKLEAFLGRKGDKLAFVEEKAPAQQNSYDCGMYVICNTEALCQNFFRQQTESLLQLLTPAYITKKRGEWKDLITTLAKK

[4] = target: T5, Calpain-2 catalytic subunit (Sus scrofa, UniProt P43367); test: pig calpain II inhibitor potency, dose response, biochemical, fluorogenic peptide substrate (AID 1420); format: functional
T5 sequence (P43367 whole entry): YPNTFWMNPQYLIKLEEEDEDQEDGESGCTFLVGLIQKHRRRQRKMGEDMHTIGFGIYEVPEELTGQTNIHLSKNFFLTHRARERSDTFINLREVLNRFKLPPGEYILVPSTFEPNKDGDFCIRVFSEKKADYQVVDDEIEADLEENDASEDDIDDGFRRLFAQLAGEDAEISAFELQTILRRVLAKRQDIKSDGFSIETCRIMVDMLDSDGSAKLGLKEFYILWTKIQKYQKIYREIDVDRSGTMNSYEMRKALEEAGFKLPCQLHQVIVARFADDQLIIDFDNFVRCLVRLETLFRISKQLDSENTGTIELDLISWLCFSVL

HEK293 = test: inhibitors of LMP1-driven NF-kB reporter, dose response, cell-based, HEK293, luciferase, cherry-pick (AID 588343); format: functional; conditions: Homo sapiens
[5] = Shn3 3'UTR reporter inhibitors, dose response, cell-based, Clone20 osteoblasts, firefly luciferase, cherry-picked (AID 624132); format: functional;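 further: firefly luciferase luminescence from reporter carrying the Shn3 3'UTR in osteoblasts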
[6] = HepG2 cell cytotoxicity, dose response, cytotoxicity control for Shn3 inhibitor project, CellTiter-Glo, cherry-picked (AID 624134); format: functional, cell-based
[7] = control 3'UTR Renilla luciferase suppression, dose response, counter-screen for Shn3 inhibitor project, cell-based, Clone20-Shn3RL, cherry-picked (AID 624133); format: functional
[8] = target: T6, Methionyl-tRNA synthetase, putative (Trypanosoma brucei brucei, UniProt Q38C91); format: functional, Trypanosoma brucei brucei strain 927/4 GUTat10.1;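 further: Read-out by fluorescence polarization, run as a confirmatory high-throughput counterscreen; potency of MetRS inhibitors measured by reduced AMP formation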
T6 sequence (Q38C91 whole entry): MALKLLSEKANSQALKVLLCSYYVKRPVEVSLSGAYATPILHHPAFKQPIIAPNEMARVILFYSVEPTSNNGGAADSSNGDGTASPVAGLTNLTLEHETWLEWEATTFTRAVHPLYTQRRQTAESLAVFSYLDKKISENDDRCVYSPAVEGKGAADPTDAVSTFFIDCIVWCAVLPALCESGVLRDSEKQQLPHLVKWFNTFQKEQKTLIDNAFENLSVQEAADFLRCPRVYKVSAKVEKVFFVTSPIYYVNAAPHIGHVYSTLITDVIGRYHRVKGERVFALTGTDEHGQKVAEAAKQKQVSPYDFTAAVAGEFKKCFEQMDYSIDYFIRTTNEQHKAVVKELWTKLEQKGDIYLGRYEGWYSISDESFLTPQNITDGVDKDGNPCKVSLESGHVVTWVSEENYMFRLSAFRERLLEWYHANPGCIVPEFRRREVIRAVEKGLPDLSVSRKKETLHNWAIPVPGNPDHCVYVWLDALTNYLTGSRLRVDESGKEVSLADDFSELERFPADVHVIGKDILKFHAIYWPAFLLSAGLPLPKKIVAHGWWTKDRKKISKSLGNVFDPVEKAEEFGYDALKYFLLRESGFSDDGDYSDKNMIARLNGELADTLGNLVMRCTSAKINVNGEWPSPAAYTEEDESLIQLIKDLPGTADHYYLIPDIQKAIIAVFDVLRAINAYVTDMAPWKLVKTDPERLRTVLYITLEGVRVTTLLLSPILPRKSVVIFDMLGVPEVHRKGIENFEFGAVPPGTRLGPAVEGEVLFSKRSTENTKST

[9] = Counterscreen for inhibitors of Trypanosoma brucei methionyl tRNA synthetase (MetRS): Luminescence-based cell-based high throughput dose response assay to identify compounds that are cytotoxic to Jurkat human T lymphocyte cells.; format: functional
[10] = test system: Streptococcus sp. 'group A'; test: growth inhibition of control SK(-) GAS strain, dose response, counter-screen for streptokinase expression inhibitor project, luminescence, kanamycin, BacTiterGlo, confirmation (AID 1900); format: functional, organism-based
[11] = target: T7, Heat shock factor protein 1 (Mus musculus, UniProt P38532); test: inhibition of MG132-induced HSE-luciferase signal, confirmation, cell-based, NIH3T3, luminescence, dose retest (AID 2382); format: functional;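 further: NIH3T3 fibroblasts with HSF1-driven luciferase reporter stressed by proteasome inhibitor MG132; luminescence from HSF1-driven luciferase expression after 8 hours of MG132 stress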
T7 sequence (P38532 whole entry): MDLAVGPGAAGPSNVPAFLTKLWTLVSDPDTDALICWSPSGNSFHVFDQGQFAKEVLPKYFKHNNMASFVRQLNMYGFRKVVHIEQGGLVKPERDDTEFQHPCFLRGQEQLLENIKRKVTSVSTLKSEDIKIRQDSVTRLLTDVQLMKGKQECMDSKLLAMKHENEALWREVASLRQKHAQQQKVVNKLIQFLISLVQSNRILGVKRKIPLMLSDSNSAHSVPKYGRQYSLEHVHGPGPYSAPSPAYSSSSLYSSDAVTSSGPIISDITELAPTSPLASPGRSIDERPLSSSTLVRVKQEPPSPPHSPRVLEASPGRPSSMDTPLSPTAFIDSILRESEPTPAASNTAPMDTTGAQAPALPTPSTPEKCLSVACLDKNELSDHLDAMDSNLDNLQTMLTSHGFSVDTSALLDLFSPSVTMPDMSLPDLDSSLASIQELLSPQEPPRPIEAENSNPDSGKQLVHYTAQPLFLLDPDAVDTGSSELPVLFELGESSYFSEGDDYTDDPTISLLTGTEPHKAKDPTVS

Streptokinase A = target: T8, Streptokinase A (Streptococcus pyogenes serotype M1, UniProt P10520); test: S. pyogenes streptokinase expression inhibitors, potency, dose response, plasminogen activation absorbance, OD405 (AID 1914); format: functional, Streptococcus pyogenes M1 GAS;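 further: secreted streptokinase activity via plasminogen activation per viability signal from cell pellet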
T8 sequence (P10520 whole entry): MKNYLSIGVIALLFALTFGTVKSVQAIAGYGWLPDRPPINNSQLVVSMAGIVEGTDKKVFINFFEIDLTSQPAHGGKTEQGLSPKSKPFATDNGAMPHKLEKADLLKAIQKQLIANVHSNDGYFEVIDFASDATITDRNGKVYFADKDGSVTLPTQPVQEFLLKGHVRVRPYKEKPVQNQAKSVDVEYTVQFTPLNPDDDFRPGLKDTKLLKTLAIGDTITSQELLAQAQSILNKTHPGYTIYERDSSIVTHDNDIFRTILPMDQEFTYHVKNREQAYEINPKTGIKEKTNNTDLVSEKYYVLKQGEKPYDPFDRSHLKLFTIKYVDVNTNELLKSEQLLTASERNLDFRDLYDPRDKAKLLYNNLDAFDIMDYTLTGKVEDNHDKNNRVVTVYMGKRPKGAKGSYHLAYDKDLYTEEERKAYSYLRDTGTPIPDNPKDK

Streptococcus = test: Group A Streptococcus viability loss, dose response, counter-screen for streptokinase expression inhibitor project, luminescence, BacTiterGlo (AID 1915); format: functional, organism-based;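 further: potency for reduction of bacterial viability or growth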
Genome polyprotein = Genome polyprotein (dengue virus type 2, UniProt P29990); test: Dengue-2 NS5 methyltransferase inhibitors, primary screen, biochemical, confirmation dose response (AID 588689); format: functional
Genome polyprotein, sequence (P29990 2492-3391 limits assumed): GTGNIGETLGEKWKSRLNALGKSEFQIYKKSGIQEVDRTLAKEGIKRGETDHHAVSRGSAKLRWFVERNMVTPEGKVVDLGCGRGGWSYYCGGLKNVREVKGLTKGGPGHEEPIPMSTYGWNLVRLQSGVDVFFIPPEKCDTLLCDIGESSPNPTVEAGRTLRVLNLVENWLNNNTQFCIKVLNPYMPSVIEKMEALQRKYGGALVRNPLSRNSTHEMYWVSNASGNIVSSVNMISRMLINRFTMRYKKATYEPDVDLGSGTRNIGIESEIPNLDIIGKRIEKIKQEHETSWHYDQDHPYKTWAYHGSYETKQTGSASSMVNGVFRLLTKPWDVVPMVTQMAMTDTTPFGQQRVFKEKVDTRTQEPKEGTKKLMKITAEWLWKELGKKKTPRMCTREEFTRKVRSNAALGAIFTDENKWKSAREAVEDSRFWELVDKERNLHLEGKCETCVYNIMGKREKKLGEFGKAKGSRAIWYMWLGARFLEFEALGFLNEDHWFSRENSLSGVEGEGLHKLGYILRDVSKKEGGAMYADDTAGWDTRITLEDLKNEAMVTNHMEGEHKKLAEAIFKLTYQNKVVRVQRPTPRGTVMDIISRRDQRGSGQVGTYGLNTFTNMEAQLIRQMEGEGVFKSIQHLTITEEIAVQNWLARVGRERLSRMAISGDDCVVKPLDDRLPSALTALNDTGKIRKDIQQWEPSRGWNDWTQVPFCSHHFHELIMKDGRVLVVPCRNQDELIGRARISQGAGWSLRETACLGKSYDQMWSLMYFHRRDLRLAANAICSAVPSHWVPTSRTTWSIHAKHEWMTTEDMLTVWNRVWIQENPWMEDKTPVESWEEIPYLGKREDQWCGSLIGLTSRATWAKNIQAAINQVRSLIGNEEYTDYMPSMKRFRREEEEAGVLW

With `CCOC(=O)c1c(C)[nH]c(N=Nc2cccc(C)c2)c1C` the IC50 (Caspase-3) was 40.3 µM (active), the IC50 [1] was 5.37 µM (active) and the IC50 [2] was 18 µM (active). The IC50 [3] was 14.7 µM (active).
For `CCCc1ccc(OC(=O)c2ccc(O)cc2Cl)cc1`, the IC50 [4] was 3.76 µM (not active), the IC50 (Caspase-3) was 38.4 µM (active) and the IC50 [1] was 8.1 µM (active). For the same compound, the IC50 [2] was 8.84 µM (active) and the IC50 [3] was 9.08 µM (active).
For `Fc1ccc2[nH]c3c(N4CCN(c5ccccc5)CC4)ncnc3c2c1`, the AC50 (HEK293) was 6.19 µM (active), the AC50 [5] was 3.78 µM (active) and the AC50 [6] was 31.5 µM (active). The AC50 [7] was 5.5 µM (active).
With `O=C(Nc1cccnc1)c1ccc(COc2cc(Cl)ccc2Cl)o1` the IC50 [8] was 23.5 µM (inactive) and the IC50 [9] was 12.8 µM (inactive).
In the case of `O=C(O)CN1C(=O)/C(=C\c2ccccc2OCc2ccc(Cl)cc2Cl)SC1=S`, the EC50 [10] was 4.28 µM (active), the EC50 [11] was 2.58 µM (active) and the EC50 (Streptokinase A) was 17.9 µM (inconclusive). The EC50 (Streptococcus) was 32.4 µM (active), the AC50 (HEK293) was 12.7 µM (active) and the IC50 (Genome polyprotein) was 87.6 µM (active).
In the case of `Nc1ccccc1C#Cc1ccc([N+](=O)[O-])cc1`, the IC50 (Caspase-3) was 23.2 µM (active), the IC50 [1] was 6.02 µM (active) and the IC50 [2] was 31 µM (active). The IC50 [3] was 80 µM (active).
With `O=C(N/N=C/c1cccc(O)c1)c1ccc2c(c1)OCCO2` the AC50 (HEK293) was 0.889 µM (active).
